Reference: PMC11725774 (Cancer Research Communications, 2025)
Read-outs that look alike come from different tables or passages of the source.

What was measured:
MV-4-11 cells = assay: Growth inhibition of AML cell line; type: cell-based, human; settings: Homo sapiens, MV4-11
Protocol: (§1) MV-4-11 cells expressing NRAS^G12D were prepared by transduction with a lentiviral vector encoding the NRAS^G12D mutation. Assays using a panel of parental Ba/F3 into which an additional copy of either WT or a mutant form of FLT3 was introduced were performed at Kyinno Biotechnology Co., Ltd. All cell lines were short tandem repeat authenticated at ATCC or at DSMZ when originally obtained, and no further authentication was done after receipt of the cells in the laboratory.
(§2) Assays using Ba/F3 cells expressing WT and mutant forms of FLT3 were performed by Kyinno Biotechnology. The cells were cultured in the medium recommended by the source for each cell line. Growth inhibition assays were performed using either Cell Titer 96 Aqueous One Solution Cell Proliferation assay (Promega, # G3581) or CCK8 (Dojindo, # CK-04). […] IC50 values were determined from growth inhibition curves fitted using GraphPad Prism and a nonlinear regression model with sigmoidal dose response. Unless otherwise indicated, data are presented as mean ± SEM.

MOLM-14 cells (parental) = assay: Growth inhibition of AML cell line; type: cell-based, human; settings: Homo sapiens, MOLM-14
Protocol: as §1, §2

TUS/R MOLM-14 cells = assay: Growth inhibition of TUS-resistant sublines versus parental; type: cell-based, human
TUS/R line 3 (MOLM-14) = assay: Growth inhibition of TUS-resistant subline; type: cell-based, human; settings: Homo sapiens; for GI50: MOLM-14, read-out: GI50 (nM) TUS/R line 3, mean ± SEM (Supplementary Table 6)
[1] = system: MV-4-11 NRAS G12D Clone 1; assay: Growth inhibition of NRAS G12D clone; type: cell-based, human; settings: for GI50: Homo sapiens, MV4-11, MV-4-11 NRAS G12D, mean ± SEM
Protocol: as §1, §2

[2] = system: MV-4-11 NRAS G12D Clone 15; assay: Growth inhibition of NRAS G12D clone; type: cell-based, human; settings: for GI50: Homo sapiens, MV4-11, MV-4-11 NRAS G12D, mean ± SEM
Protocol: as §1, §2

[3] = system: MV-4-11 NRAS G12D Clone 4; assay: Growth inhibition of NRAS G12D clone; type: cell-based, human; settings: for GI50: Homo sapiens
Protocol: as §1, §2

TUS/R line 4 (MOLM-14) = assay: Growth inhibition of TUS-resistant subline; type: cell-based, human; settings: Homo sapiens; for GI50: MOLM-14, read-out: GI50 (nM) TUS/R line 4, mean ± SEM (Supplementary Table 6)
MOLM-13 cells = assay: Growth inhibition of AML cell line; type: cell-based; settings: Homo sapiens, mean ± SD
Protocol: as §1, §2

Ba/F3 cells FLT3 ITD = assay: Growth inhibition of Ba/F3 cells; type: cell-based, murine; settings: Mus musculus, BaF3; Ba/F3 FLT3 ITD; mean ± SD; read-out: GI50
Protocol: as §1, §2

[4] = system: Ba/F3 cells FLT3 ITD/D835Y; assay: Growth inhibition of Ba/F3 cells; type: cell-based, murine; settings: Mus musculus, BaF3; Ba/F3 FLT3 ITD/D835Y; mean ± SD; read-out: GI50
Protocol: as §1, §2

[5] = system: Ba/F3 cells FLT3 ITD/F691L; assay: Growth inhibition of Ba/F3 cells; type: cell-based, murine; settings: Mus musculus, BaF3; Ba/F3 FLT3 ITD/F691L; mean ± SD; read-out: GI50
Protocol: as §1, §2

Ba/F3 cells FLT3 D835Y = assay: Growth inhibition of Ba/F3 cells; type: cell-based, murine; settings: Mus musculus, BaF3; Ba/F3 FLT3 D835Y; mean ± SD; read-out: GI50
Protocol: as §1, §2

TUS/R line 1 (MOLM-14) = assay: Growth inhibition of TUS-resistant subline; type: cell-based; settings: Homo sapiens, MOLM-14, read-out: IC50 (nmol/L), Mean ± SEM, TUS/R line 1
TUS/R line 2 (MOLM-14) = assay: Growth inhibition of TUS-resistant subline; type: cell-based; settings: Homo sapiens, MOLM-14, read-out: IC50 (nmol/L), Mean ± SEM, TUS/R line 2
[6] = mean ± SEM (Supplementary Table 7), read-out: GI50 (nM) Parental (MV-4-11)
[7] = mean ± SEM (Supplementary Table 6), read-out: GI50 (nM) Parental MOLM-14 (converted)
[8] = MV4-11, MV-4-11 NRAS G12D, high expression, mean ± SEM, read-out: GI50 (nM) Clone 4
[9] = MV-4-11, mean ± SD (Supplementary Table 4), read-out: GI50
[10] = mean ± SD (Supplementary Table 4), read-out: GI50
[11] = 13 to […]-fold increase in NRAS G12D expression

Compound	GI50 (TUS/R line 3 (MOLM-14)) [nM]	GI50 [1] [nM]	GI50 [2] [nM]	GI50 (TUS/R line 4 (MOLM-14)) [nM]	GI50 (MV-4-11 cells; [6]) [nM]	GI50 (MOLM-14 cells (parental); [7]) [nM]	also measured
CC(=O)Nc1cccc(-n2c(=O)n(C3CC3)c(=O)c3c(Nc4ccc(I)cc4F)n(C)c(=O)c(C)c32)c1 [Trametinib, trametinib]	67 ± 12.8	1.6 ± 0.4	2.3 ± 0.8	101.5 ± 0.4	6.7 ± 1.6	153 ± 14.5	fold hypersensitive, TUS/R versus parental MOLM-14 (TUS/R MOLM-14 cells): ~1.9 fold; GI50 [3, 8]: 2.5 ± 0.7 nM
Cc1cnc(-c2ccc(-c3ccc(NC(=O)Nc4c(F)cc(F)cc4F)cc3F)c3c2C(=O)NC3)[nH]1 [Luxeptinib]	0.1 ± 0.01	–	–	0.1 ± 0.01	–	0.2 ± 0.01	–
Nc1ncn([C@@H]2O[C@H](CO)[C@@H](O)[C@H]2O)c(=O)n1 [5-Azacytidine, 5-azacytidine]	1620 ± 294	–	–	1580 ± 145	–	2140 ± 231	–
CO[C@@H]1[C@H](N(C)C(=O)c2ccccc2)C[C@H]2O[C@]1(C)n1c3ccccc3c3c4c(c5c6ccccc6n2c5c31)C(=O)NC4 [Midostaurin, midostaurin]	–	–	–	–	–	–	GI50 (MV-4-11 cells; [9]): 6 ± 1.4 nM; GI50 (MOLM-14 cells (parental); [10]): 12 ± 7.1 nM; GI50 (Ba/F3 cells FLT3 ITD): 5.1 ± 0.1 nM; GI50 [4]: 21 ± 1.1 nM; GI50 [5]: 16 ± 3.5 nM; GI50 (Ba/F3 cells FLT3 D835Y): 9 ± 2.7 nM; GI50 (MOLM-13 cells): 19 ± 14 nM

Second part, led by results:

GI50 (TUS/R line 3 (MOLM-14)) [nM]	GI50 [1] [nM]	GI50 [2] [nM]	GI50 (TUS/R line 4 (MOLM-14)) [nM]	Compound	GI50 (MV-4-11 cells; [6]) [nM]	GI50 (MOLM-14 cells (parental); [7]) [nM]	also measured
~1100	–	–	~1130	N#CC[C@H](C1CCCC1)n1cc(-c2ncnc3[nH]ccc23)cn1 [Ruxolitinib, ruxolitinib]	–	–	–
0.2 ± 0.1	1.1 ± 0.2	1.3 ± 0.4	0.5 ± 0.1	CC(C)(C)c1cc(NC(=O)Nc2ccc(-c3cn4c(n3)sc3cc(OCCN5CCOCC5)ccc34)cc2)no1 [Quizartinib, quizartinib]	0.5 ± 0.1	0.5 ± 0.02	GI50 (MV-4-11 cells; [9]): 0.2 ± 0.1 nM; GI50 (MOLM-14 cells (parental); [10]): 0.6 ± 0.2 nM; GI50 (MOLM-13 cells): 0.9 ± 0.5 nM; GI50 ([3]; MV4-11, read-out: GI50 (nM) Clone 4): 1.9 ± 0.5 nM
–	5.5 ± 1.4	4.9 ± 1.3	–	CC1(C)CCC(CN2CCN(c3ccc(C(=O)NS(=O)(=O)c4ccc(NCC5CCOCC5)c([N+](=O)[O-])c4)c(Oc4cnc5[nH]ccc5c4)c3)CC2)=C(c2ccc(Cl)cc2)C1 [Venetoclax, venetoclax]	10.5 ± 1.7	–	IC50 (MOLM-14 cells (parental); growth inhibition, three independent experiments, read-out: IC50 (nmol/L), Mean ± SEM, MOLM-14 parental): 3020 ± 464 nmol/L; IC50 (TUS/R line 1 (MOLM-14)): 1.3 ± 0.1 nmol/L; IC50 (TUS/R line 3 (MOLM-14); MOLM-14, read-out: IC50 (nmol/L), Mean ± SEM, TUS/R line 3): 1.1 ± 0.2 nmol/L; IC50 (TUS/R line 2 (MOLM-14)): 1.5 ± 0.05 nmol/L; change in sensitivity, clone 1 [1, 11]: did not alter sensitivity; change in sensitivity, clone 15 [2, 11]: did not alter sensitivity; GI50 [3, 8]: 2260 ± 156 nM; fold resistant / loss of sensitivity, clone 4 versus parental MV-4-11 ([3]; high NRAS G12D expression): 214 fold; IC50 (TUS/R line 4 (MOLM-14); MOLM-14, read-out: IC50 (nmol/L), Mean ± SEM, TUS/R line 4): 5 ± 0.8 nmol/L
